Assay results reported in PubChem BioAssay AID248 (DTP/NCI, 2004).
Toxic doses and inconclusive results are not listed. No stated cut-off is given here; in the data, active means T/C of 150% or more; inactive means T/C below 125%.

Test system: L1210 leukemia ip in BDF1 mice, survival T/C
Experiment: NCI In Vivo Anticancer Drug Screen. Data for tumor model L1210 Leukemia (intraperitoneal) in B6D2F1 (BDF1) mice
Conditions: endpoint: mean survival time, higher = longer survival
Method in brief: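 Antitumor effect is assessed in tumor-bearing animals. Survival in the compound arm is compared with a vehicle-dosed control arm and expressed as their quotient.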

[1] = dose: 100.0 mg/kg/injection, schedule: Q01DX009 (ip), vehicle: Klucel (hydroxypropylcellulose) (HPC)
[2] = dose: 200.0 mg/kg/injection, schedule: Q01DX009 (ip), vehicle: Klucel (hydroxypropylcellulose) (HPC)
[3] = dose: 100.0 mg/kg/injection, schedule: Q04DX003 (ip), vehicle: saline with Tween-80
[4] = dose: 200.0 mg/kg/injection, schedule: Q04DX003 (ip), vehicle: saline with Tween-80
[5] = dose: 100.0 mg/kg/injection, schedule: Q04DX003 (ip), vehicle: Klucel (hydroxypropylcellulose) (HPC)
[6] = dose: 200.0 mg/kg/injection, schedule: Q04DX003 (ip), vehicle: Klucel (hydroxypropylcellulose) (HPC)
[7] = dose: 400.0 mg/kg/injection, schedule: Q04DX003 (ip), vehicle: Klucel (hydroxypropylcellulose) (HPC)
[8] = dose: 100.0 mg/kg/injection, schedule: Q04DX002 (ip), vehicle: Klucel (hydroxypropylcellulose) (HPC)
[9] = dose: 200.0 mg/kg/injection, schedule: Q04DX002 (ip), vehicle: Klucel (hydroxypropylcellulose) (HPC)
[10] = dose: 400.0 mg/kg/injection, schedule: Q04DX002 (ip), vehicle: Klucel (hydroxypropylcellulose) (HPC)
[11] = dose: 100.0 mg/kg/injection, schedule: Q04DX002 (ip), vehicle: saline with Tween-80
[12] = dose: 200.0 mg/kg/injection, schedule: Q04DX002 (ip), vehicle: saline with Tween-80
[13] = dose: 400.0 mg/kg/injection, schedule: Q04DX002 (ip), vehicle: saline with Tween-80

Measured: T/C

COc1cccc2c1C(=O)c1c(O)c3c(c(O)c1C2=O)CC(O)(C(C)=O)CC3OC1CC(N)C(OC2CC(N)C(O)C(C)O2)C(C)O1 (stereo not drawn)
inactive: dose: 0.65 mg/kg/injection, schedule: Q01DX009 (ip), vehicle: saline 111 % of control | dose: 1.25 mg/kg/injection, schedule: Q01DX009 (ip), vehicle: saline 117 % of control | dose: 10.0 mg/kg/injection, schedule: Q01DX009 (ip), vehicle: saline 89 % of control

CC1(C)c2cc3ccc(Cl)cc3nc2-c2ccccc2C1(C)O (stereo not drawn)
inactive: [1] 89 % of control | dose: 100.0 mg/kg/injection, schedule: Q04DX003 (ip), vehicle: acetone 98 % of control | [2] 89 % of control | dose: 200.0 mg/kg/injection, schedule: Q04DX003 (ip), vehicle: acetone 101 % of control | dose: 400.0 mg/kg/injection, schedule: Q04DX003 (ip), vehicle: acetone 91 % of control

Cc1csc2nc(-c3ccccc3)nc(Cl)c12
inactive: dose: 100.0 mg/kg/injection, schedule: Q04DX003 (ip), vehicle: saline sonified 97 % of control | dose: 200.0 mg/kg/injection, schedule: Q04DX003 (ip), vehicle: saline sonified 93 % of control | dose: 400.0 mg/kg/injection, schedule: Q04DX003 (ip), vehicle: saline sonified 95 % of control

CCOC(=O)N1CCN(C(=O)OCC)CC1
inactive: dose: 50.0 mg/kg/injection, schedule: Q01DX009 (ip), vehicle: saline with Tween-80 95 % of control | dose: 100.0 mg/kg/injection, schedule: Q01DX009 (ip), vehicle: saline with Tween-80 95 % of control | dose: 200.0 mg/kg/injection, schedule: Q01DX009 (ip), vehicle: saline with Tween-80 95 % of control

CCOC(=O)c1cnc(SC)nc1N(C)C
inactive: [3] 96 % of control | [4] 96 % of control

CCOC(=O)c1ccc(C(=O)OCC)c(Cl)n1
inactive: [1] 97 % of control | [5] 105 % of control | [2] 95 % of control | [6] 97 % of control | dose: 400.0 mg/kg/injection, schedule: Q01DX009 (ip), vehicle: Klucel (hydroxypropylcellulose) (HPC) 97 % of control | [7] 102 % of control

O=C(CCCCNC(=O)C1CCCN1Sc1ccc([N+](=O)[O-])cc1[N+](=O)[O-])OCc1ccccc1 (stereo not drawn)
inactive: [8] 90 % of control | [9] 94 % of control | [10] 94 % of control

Nc1nnnc2c1cnn2C1OC(CO)C(O)C1O (stereo not drawn)
inactive: dose: 100.0 mg/kg/injection, schedule: Q01DX001 (ip), vehicle: other 97 % of control | dose: 200.0 mg/kg/injection, schedule: Q01DX001 (ip), vehicle: other 101 % of control | dose: 400.0 mg/kg/injection, schedule: Q01DX001 (ip), vehicle: other 101 % of control

CSCc1cnc(N)nc1-c1ccccc1
inactive: [3] 105 % of control | [4] 97 % of control | dose: 400.0 mg/kg/injection, schedule: Q04DX003 (ip), vehicle: saline with Tween-80 105 % of control

NS(=O)(=O)Cl
inactive: dose: 100.0 mg/kg/injection, schedule: Q01DX009 (sc), vehicle: olive oil, sesame oil, peanut oil 98 % of control | dose: 100.0 mg/kg/injection, schedule: Q04DX003 (sc), vehicle: olive oil, sesame oil, peanut oil 102 % of control | dose: 200.0 mg/kg/injection, schedule: Q01DX009 (sc), vehicle: olive oil, sesame oil, peanut oil 100 % of control | dose: 200.0 mg/kg/injection, schedule: Q04DX003 (sc), vehicle: olive oil, sesame oil, peanut oil 103 % of control | dose: 400.0 mg/kg/injection, schedule: Q01DX009 (sc), vehicle: olive oil, sesame oil, peanut oil 95 % of control | dose: 400.0 mg/kg/injection, schedule: Q04DX003 (sc), vehicle: olive oil, sesame oil, peanut oil 108 % of control

O=[N+]([O-])c1ccc(Cl)cc1C1OCCO1
inactive: dose: 100.0 mg/kg/injection, schedule: Q01DX001 (ip), vehicle: saline 93 % of control | dose: 200.0 mg/kg/injection, schedule: Q01DX001 (ip), vehicle: saline 93 % of control | dose: 400.0 mg/kg/injection, schedule: Q01DX001 (ip), vehicle: saline 104 % of control

CC(C)C1C(C(C)C)N1C(=O)Nc1ccccc1 (stereo not drawn)
inactive: dose: 100.0 mg/kg/injection, schedule: Q01DX001 (ip), vehicle: Klucel (hydroxypropylcellulose) (HPC) 93 % of control | dose: 200.0 mg/kg/injection, schedule: Q01DX001 (ip), vehicle: Klucel (hydroxypropylcellulose) (HPC) 96 % of control | dose: 400.0 mg/kg/injection, schedule: Q01DX001 (ip), vehicle: Klucel (hydroxypropylcellulose) (HPC) 93 % of control

C=COC(=O)CCCCCCCCCCCCCCCCC
inactive: [5] 101 % of control | [6] 100 % of control | [7] 103 % of control

O=C(O)c1cccc(C(=O)c2ccccc2)c1O
inactive: dose: 100.0 mg/kg/injection, schedule: Q01DX001 (ip), vehicle: carboxymethylcellulose (CMC) 97 % of control | dose: 200.0 mg/kg/injection, schedule: Q01DX001 (ip), vehicle: carboxymethylcellulose (CMC) 100 % of control | dose: 400.0 mg/kg/injection, schedule: Q01DX001 (ip), vehicle: carboxymethylcellulose (CMC) 92 % of control

CCS(=O)(=O)CCN1C(=O)C2C3CCC(O3)C2C1=O (stereo not drawn)
inactive: [8] 98 % of control | [9] 95 % of control | [10] 117 % of control

Cc1cccc(C2=N/C(=C\c3ccccc3)C(=O)O2)c1
inactive: [11] 95 % of control | [12] 89 % of control | [13] 89 % of control

COc1ccc(NC(=O)c2ccco2)cc1
inactive: [8] 123 % of control | [9] 112 % of control | [10] 123 % of control

O=S(=O)(F)c1cc(CBr)ccc1Cl
inactive: [11] 98 % of control | [12] 95 % of control | [13] 101 % of control

NC(N)=N/N=C/c1cccc(O)c1
inactive: dose: 63.0 mg/kg/injection, schedule: Q01DX Z (ip), vehicle: saline 112 % of control | dose: 125.0 mg/kg/injection, schedule: Q01DX Z (ip), vehicle: saline 102 % of control

CCc1cc(/C=C2\C(=O)C=Cc3ccccc32)c(O)s1
inactive: [11] 89 % of control | [13] 89 % of control

c1ccc(N/N=C2/CSCc3ccccc32)cc1
inactive: dose: 100.0 mg/kg/injection, schedule: Q01DX001 (ip), vehicle: saline with Tween-80 97 % of control | dose: 200.0 mg/kg/injection, schedule: Q01DX001 (ip), vehicle: saline with Tween-80 95 % of control | dose: 400.0 mg/kg/injection, schedule: Q01DX001 (ip), vehicle: saline with Tween-80 106 % of control

CCSC(=S)SCC(=O)O
inactive: [3] 107 % of control | [4] 92 % of control

CCC1(CC)OC2=C(CC(C#N)(C#N)C(C#N)(C#N)C2)O1
inactive: dose: 5.0 mg/kg/injection, schedule: Q01DX009 (ip), vehicle: Klucel (hydroxypropylcellulose) (HPC) 104 % of control | dose: 10.0 mg/kg/injection, schedule: Q01DX001 (ip), vehicle: saline 102 % of control | dose: 10.0 mg/kg/injection, schedule: Q01DX009 (ip), vehicle: Klucel (hydroxypropylcellulose) (HPC) 105 % of control | dose: 20.0 mg/kg/injection, schedule: Q01DX001 (ip), vehicle: saline 89 % of control | dose: 20.0 mg/kg/injection, schedule: Q01DX009 (ip), vehicle: Klucel (hydroxypropylcellulose) (HPC) 102 % of control

N#CC1(Cc2ccc(Br)cc2)c2cc(OC(=O)c3ccccc3)ccc2C=CN1C(=O)c1ccccc1 (stereo not drawn)
inactive: [5] 96 % of control | [6] 99 % of control | [7] 99 % of control
